In patent US9526785B2, “Pharmaceuticals for oral delivery” (Enteris BioPharma, Inc., priority 2013, dated 2016):
Where two headings read alike, the source gives them in different places.

Experiments:
[1] = Tigecycline plasma PK after IV bolus in dogs; format: in vivo, Beagle dogs; details: female, beagle, dog, plasma; for AUC(0-t) / Cmax: iv
Experimental: Adult beagle dogs weighing approximately 9 to 15 kg were used in the study. […] Room temperature was set to be maintained between approximately 20±5° C. Relative humidity was monitored but not controlled.
TEKLAD™ Certified Canine Diet was provided once daily in amounts (˜400 grams) appropriate for the size and age of the animals. Tap water was available ad libitum via automatic watering device or water bowls.
Doses are expressed in terms of free net tigecycline content. […] Oral dosing of enteric-coated capsules was accomplished by administering them to the back of the dog's mouth, followed by a chase of 5 mL water to ensure swallowing.
Water was provided ad libitum. […] Subsequently, each group of animals was dosed based on the protocol, i.e. either IV, or PO by capsule.
Minocycline (VWR international) was used as an internal standard. Sample processing/clean-up of plasma samples was carried out offline by protein precipitation with acidified acetonitrile using 0.5% trifluoroacetic acid (TFA).
The HPLC system consisted of Shimadzu SIL-HTc HPLC system equipped with dual Shimadzu LC-10ADvp isopumps, a Shimadzu CTO-10ASvp column temperature controller and a Shimadzu SPD-10Avp variable wavelength detector. […] Mobile phase A consisted of 23 mM phosphate buffer pH 2.5 with 4 mM 1-octanesulfonic acid, while mobile phase B consisting of 90% acetonitrile, 10% water, with 2 mM 1-octanesulfonic acid. […] The total runtime was 18 minutes per sample. The mobile phase flow rate was 1.2 mL/min. Detection was performed using the SPD-10Avp variable wavelength detector set at 350 nm, with a sensitivity of 0.001 aufs.
The samples were then centrifuged under refrigeration at 13 k rpm for 5 minutes. The supernatant was taken and the liquid removed to dryness under nitrogen in a turbovap. The dried extract was reconstituted in 60 μL of mobile phase A and the suspension was further centrifuged at 5 k rpm for 5 minutes to pellet any insoluble matter. The resulting supernatant was then injected onto the LC.
The unknown concentration in dog plasma samples was determined by interpolation of the peak area ratios of analyte:internal standard versus the ratio of their nominal concentrations into the regression line obtained from calibration standards spiked in pooled dog plasma. No regression weighting was used for the calculations. […] The calibration curve covered the range of 0.05 μg/mL to 5 μg/mL.
It should be noted however, that when the method was transferred to an older HPLC system (equipped with a Shimadzu SCT-10Avp system controller and SIL-10A autoinjector), the time program was further altered such that the gradient went to 38% mobile phase B to account to system design changes. All other parameters remained unchanged.
Tigecycline PK parameters for individual dogs were calculated using non-compartmental analysis with PK Functions for Microsoft Excel.

[2] = reported; in humans; cited from earlier work
[3] = intravenous, 1 mg, Tigecycline Plasma Concentration, 1 mg IV in PBS (0.08 mg/kg), SC427, mean
[4] = intravenous, 5 mg, Tigecycline Plasma Concentration, 5 mg IV in PBS ([…]), SC431, individual dogs
[5] = intravenous, 5 mg, Tigecycline Plasma Concentration, 5 mg IV in PBS ([…]), SC431, mean

In the case of `CN(C)c1cc(NC(=O)CNC(C)(C)C)c(O)c2c1C[C@H]1C[C@H]3[C@H](N(C)C)C(O)=C(C(N)=O)C(=O)[C@@]3(O)C(O)=C1C2=O` [Tigecycline], the concentration at 120 min [1, 3] is reported as 11.1 ng/mL, the concentration at 360 min [1, 3] is reported as 1.15 ng/mL and the concentration at 5 min [1, 4] is reported as 336 ng/mL. It also gave a concentration at 5 min [1, 5] of 335 ng/mL, a concentration at 10 min [1, 4] of 198 ng/mL and a concentration at 10 min [1, 5] of 163 ng/mL. The concentration at 15 min [1, 4] was 122 ng/mL, the concentration at 15 min [1, 5] was 111 ng/mL and the concentration at 20 min [1, 4] was 117 ng/mL. It also gave a concentration at 20 min [1, 5] of 94.4 ng/mL, a concentration at 30 min ([1]; intravenous, 5 mg, Tigecycline Plasma Concentration, 30 min, 5 mg IV in PBS ([…]), SC431, mean) of 76.2 ng/mL and a concentration at 40 min [1, 4] of 72 ng/mL. For the same compound, the concentration at 40 min [1, 5] was 60.5 ng/mL, the concentration at 60 min ([1]; intravenous, 5 mg, Tigecycline Plasma Concentration, 60 min, 5 mg IV in PBS ([…]), SC431, mean) was 49.1 ng/mL and the concentration at 90 min [1, 4] was 59.9 ng/mL. It also gave a concentration at 90 min [1, 5] of 47.4 ng/mL, a concentration at 120 min [1, 5] of 42.3 ng/mL and a concentration at 360 min [1, 5] of 16.5 ng/mL. It also gave an AUC(0-t) ([1]; 0.08 mg/kg, 1 mg IV in PBS (0.08 mg/kg), SC427, individual dogs, read-out: AUC(0-t)) of 56.2 ng·h/mL, a Cmax ([1]; 0.08 mg/kg, 1 mg IV in PBS (0.08 mg/kg), SC427, individual dogs, read-out: Cmax) of 86 ng/mL and an AUC(0-t) ([1]; 0.08 mg/kg, 1 mg IV in PBS (0.08 mg/kg), SC427, mean, read-out: AUC(0-t)) of 72.4 ng·h/mL. The Cmax ([1]; 0.08 mg/kg, 1 mg IV in PBS (0.08 mg/kg), SC427, mean, read-out: Cmax) was 79.1 ng/mL, the AUC(0-t) ([1]; 0.08 mg/kg, IV bolus 1 mg (0.08 mg/kg), SC427, read-out: AUC(0-t), mean) was 72.4 ng·h/mL and the Cmax ([1]; 0.08 mg/kg, IV bolus 1 mg (0.08 mg/kg), SC427, read-out: Cmax, mean) was 79.1 ng/mL. The AUC(0-t) ([1]; 0.08 mg/kg, IV, Study 1 (SC427), 1 mg (0.08 mg/kg), mean (% CV), read-out: AUC(0-t)) was 72.4 ng·h/mL, the Cmax ([1]; 0.08 mg/kg, IV, Study 1 (SC427), 1 mg (0.08 mg/kg), mean (% CV), read-out: Cmax) was 79.1 ng/mL and the Cmax ([1]; […], 5 mg IV in PBS ([…]), SC431, individual dogs, read-out: Cmax) was 336 ng/mL. It also gave an AUC(0-t) ([1]; […], 5 mg IV in PBS ([…]), SC431, mean, read-out: AUC(0-t)) of 411 ng·h/mL, a Cmax ([1]; […], 5 mg IV in PBS ([…]), SC431, mean, read-out: Cmax) of 335 ng/mL and an AUC(0-t) ([1]; […], IV bolus 5 mg ([…]), SC431, read-out: AUC(0-t), mean) of 411 ng·h/mL. It also gave a Cmax ([1]; […], IV bolus 5 mg ([…]), SC431, read-out: Cmax, mean) of 335 ng/mL, an AUC(0-t) ([1]; […], IV, Study 2 (SC431), 5 mg ([…]), mean (% CV), read-out: AUC(0-t)) of 411 ng·h/mL and a Cmax ([1]; […], IV, Study 2 (SC431), 5 mg ([…]), mean (% CV), read-out: Cmax) of 335 ng/mL. The Tmax ([1]; IV bolus 1 mg (0.08 mg/kg), SC427, read-out: Tmax, mean (converted)) was 5 min, the Tmax ([1]; IV bolus 5 mg (0.42 mg/kg), SC431, read-out: Tmax (converted)) was 5 min and the single dose half-life [2] was “approximately 20 hours”.
